Assay results from ChEMBL document CHEMBL1157275, “Biological activities of 7-epiclusianone” (J Nat Prod, 1999).
≈ marks a conversion by molar mass, not a printed value. Calls of active or inactive are those of the source. The calls are words filed in the database; no cut-off is given here.

Key:
Trypanosoma cruzi [1] = assay: Antitrypanosomal activity against Trypanosoma cruzi Y trypomastigotes infected in Swiss albino mouse blood assessed as reduction of parasite number at 500 ug/mL after 24 hrs; assay type: functional; parameters: scale not given: the % may be the effect or the level left
Trypanosoma cruzi [2] = assay: Antitrypanosomal activity against Trypanosoma cruzi Y trypomastigotes infected in Swiss albino mouse blood assessed as reduction of parasite number at 250 ug/mL after 24 hrs; assay type: functional; parameters: scale not given: the % may be the effect or the level left
Trypanosoma cruzi [3] = assay: Antitrypanosomal activity against Trypanosoma cruzi Y trypomastigotes infected in Swiss albino mouse blood assessed as reduction of parasite number at 125 ug/mL after 24 hrs; assay type: functional; parameters: scale not given: the % may be the effect or the level left
[4] = system: Clavibacter michiganensis subsp. michiganensis; assay: Antimicrobial activity against Clavibacter michiganensis subsp. michiganensis; assay type: functional
Listeria monocytogenes = assay: Antimicrobial activity against Listeria monocytogenes; assay type: functional
Staphylococcus aureus = assay: Antibacterial activity against Staphylococcus aureus; assay type: functional
[5] = Toxicity in Artemia salina; assay type: organism-based; settings: in vivo
[6] = system: Cladosporium sphaerospermum; assay: Antifungal activity against Cladosporium sphaerospermum; assay type: functional, organism-based
Biomphalaria glabrata = assay: Molluscicidal activity against Biomphalaria glabrata at 20 ppm; assay type: functional, organism-based
Trypanosoma cruzi [7] = assay: Antitrypanosomal activity against Trypanosoma cruzi Y trypomastigotes infected in Swiss albino mouse assessed as reduction in parasitaemia at 500 mg/kg, po after 6 hrs; assay type: functional, organism-based; parameters: dose 500 mg/kg
Trypanosoma cruzi [8] = assay: Antitrypanosomal activity against Trypanosoma cruzi Y trypomastigotes infected in Swiss albino mouse assessed as mortality rate at 100 mg/kg, po daily for 4 days assessed after 6 to 9 days; assay type: functional, organism-based; parameters: dose 100 mg/kg

Row | SMILES | Activity (Trypanosoma cruzi [1]) | Activity (Trypanosoma cruzi [2]) | Activity (Trypanosoma cruzi [3]) | MIC [4] | IC100 (Listeria monocytogenes) | IC100 (Staphylococcus aureus) | LC50 [5] | Activity [6] | Activity (Biomphalaria glabrata) | Activity (Trypanosoma cruzi [7]) | Activity (Trypanosoma cruzi [8])
1 | CC(C)=CC[C@H]1C[C@]2(CC=C(C)C)C(=O)C(C(=O)c3ccccc3)=C(O)[C@](CC=C(C)C)(C2=O)C1(C)C | 92% | 38% | 17% | 4 µg/mL (≈ 7.96 µM) | 80 µg/mL | 80 µg/mL | 49.7 µM | inactive | inactive | Active | inactive
2 | O=C(Cn1ccnc1[N+](=O)[O-])NCc1ccccc1 | – | – | – | – | – | – | – | – | – | Active | Active
